molecular target: T1, Cereblon (CRBN) protein (Homo sapiens, UniProt Q96SW2); test: CRBN binding affinity, E3scan (% Ctrl); settings: lower % Ctrl = stronger binding, DMSO 100% Ctrl
T1 construct: DNA label for qPCR detection (not a peptide tag); host or cells: HEK-293
Source text: As used herein, the term “Cereblon (CRBN)” refers to a protein encoded by a human CRBN gene located at a cytogenetic location of 3p26.2 and a molecular location between base pairs 3,148,489 and 3,179,716 on chromosome 3 (UCSC Genome Browser on Human, December 2013 (GRCh38/hg38) assembly). CRBN is a substrate recognition component of a DCX (DDB1-CUL4-X-box) E3 protein ligase complex mediating ubiquitination and subsequent proteasomal degradation of a target protein. The DCX (DDB1-CUL4-X-box) E3 protein ligase complex may comprise at least CRBN, CUL4A, DDB1, and RBX1. The CRBN protein has two isoforms generated by alternative splicing: isoform 1 has 442 amino acids and a molecular weight of 50,546 Da; and isoform 2 has 441 amino acids and a molecular weight of 50,475 Da.
To confirm the binding affinity of the compounds synthesized in the Preparation Examples for a Cereblon (CRBN) protein, the following experiment was performed using E3scan™ from Eurofins.
Specifically, CRBN was produced using a HEK-293 cell line and labeled with DNA for qPCR detection. Streptavidin-coated magnetic beads were treated with a biotinylated small-molecule ligand at room temperature for 30 minutes to generate an affinity resin for E3scan analysis. The liganded beads were blocked with excess biotin and washed with a blocking buffer (SeaBlock (Pierce), 1% BSA, 0.05% Tween 20, 1 mM DTT) to remove unbound ligands and prevent non-specific binding. […] The test compound was prepared as a 100× stock in 100% DMSO and diluted directly into the assay solution. All reactions were performed in a polypropylene 384-well plate with a final reaction volume of 0.02 mL. […] Then, the beads were resuspended in an elution buffer (1×PBS, 0.05% Tween 20, 0.5 μM non-biotinylated affinity ligand) and incubated with shaking at room temperature for 30 minutes. The CRBN concentration in the eluate was measured by qPCR. […] A lower ‘% Ctrl’ indicates a stronger binding affinity.

T1 sequence (Q96SW2 whole entry): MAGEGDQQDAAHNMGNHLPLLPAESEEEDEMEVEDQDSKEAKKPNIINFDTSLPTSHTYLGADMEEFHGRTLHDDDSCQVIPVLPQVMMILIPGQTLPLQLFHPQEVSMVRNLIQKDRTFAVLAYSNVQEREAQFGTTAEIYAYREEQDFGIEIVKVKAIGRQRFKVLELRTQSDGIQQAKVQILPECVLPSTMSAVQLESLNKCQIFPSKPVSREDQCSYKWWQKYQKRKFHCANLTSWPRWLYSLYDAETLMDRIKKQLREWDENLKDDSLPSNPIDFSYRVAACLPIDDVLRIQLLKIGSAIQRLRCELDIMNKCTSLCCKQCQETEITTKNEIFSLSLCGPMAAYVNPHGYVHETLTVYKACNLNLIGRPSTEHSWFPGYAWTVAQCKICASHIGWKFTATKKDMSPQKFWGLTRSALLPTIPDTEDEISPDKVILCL

Question: With `O=C1CCC(N2Cc3cc(C(=O)c4cccc(Nc5ccccc5)c4)ccc3C2=O)C(=O)N1` (stereo not shown) [Compound 16, 3-(1-oxo-5-(3-(phenylamino)benzoyl)isoindolin-2-yl)piperidine-2,6-dione] as the compound, how does the remaining activity at 5 µM read?
Answer: 0 to 0.1%

Question: How did the remaining activity at 5 µM turn out when `O=C1CCC(N2Cc3cc(C(=O)c4ccc5cn[nH]c5c4)ccc3C2=O)C(=O)N1` (stereo not shown) [Compound 21, 3-(5-(1H-indazole-6-carbonyl)-1-oxoisoindolin-2-yl)piperidine-2,6-dione] was run?
Answer: 0 to 0.1%

Question: Which remaining activity at 5 µM does the source give for `O=C1CCC(N2Cc3cc(C(=O)N4Cc5cccc6cccc4c56)ccc3C2=O)C(=O)N1` (stereo not shown) [Compound 31, 3-(5-(1,2-dihydrobenzo[cd]indole-1-carbonyl)-1-oxoisoindolin-2-yl)piperidine-2,6-dione] here?
Answer: 0 to 0.1%

Question: Which remaining activity at 5 µM does the source give for `O=C1CCC(N2Cc3cc(C(=O)c4cc5ccccc5o4)ccc3C2=O)C(=O)N1` (stereo not shown) [Compound 34, 3-(5-(benzofuran-2-carbonyl)-1-oxoisoindolin-2-yl)piperidine-2,6-dione] here?
Answer: 0 to 0.1%

Question: With `O=C1CCC(N2Cc3cc(C(=O)n4ncc5ccccc54)ccc3C2=O)C(=O)N1` (stereo not shown) [Compound 6, 3-(5-(1H-indazole-1-carbonyl)-1-oxoisoindolin-2-yl)piperidine-2,6-dione] as the compound, how does the remaining activity at 5 µM read?
Answer: 0 to 0.1%

Question: How did the remaining activity at 5 µM turn out when `O=C1CCC(N2Cc3cc(C(=O)c4n[nH]c5ccccc45)ccc3C2=O)C(=O)N1` (stereo not shown) [Compound 17, 3-(5-(1H-indazole-3-carbonyl)-1-oxoisoindolin-2-yl)piperidine-2,6-dione] was run?
Answer: 0 to 0.1%

Question: How did the remaining activity at 5 µM turn out when `O=C1CCC(N2Cc3cc(C(=O)c4ccc(-c5ccccc5)[nH]4)ccc3C2=O)C(=O)N1` (stereo not shown) [Compound 28, 3-(1-oxo-5-(5-phenyl-1H-pyrrole-2-carbonyl)isoindolin-2-yl)piperidine-2,6-dione] was run?
Answer: 1 to 10%

Question: How did the remaining activity at 5 µM turn out when `O=C1CCC(N2C(=O)c3ccc(C(=O)c4cc5ccccc5[nH]4)cc3C2=O)C(=O)N1` (stereo not shown) [Compound 10, 2-(2,6-dioxopiperidin-3-yl)-5-(1H-indole-2-carbonyl)isoindoline-1,3-dione] was run?
Answer: 1 to 10%

Question: With `O=C1CCC(N2Cc3cc(C(=O)c4c[nH]c5ccc(-c6ccccc6)cc45)ccc3C2=O)C(=O)N1` (stereo not shown) [Compound 24, 3-(1-oxo-5-(5-phenyl-1H-indole-3-carbonyl)isoindolin-2-yl)piperidine-2,6-dione] as the compound, how does the remaining activity at 5 µM read?
Answer: 10 to 35%

Question: How did the remaining activity at 5 µM turn out when `O=C1CCC(N2Cc3cc(C(=O)c4cn(-c5ccccc5)c5ccccc45)ccc3C2=O)C(=O)N1` (stereo not shown) [Compound 35, 3-(1-oxo-5-(1-phenyl-1H-indole-3-carbonyl)isoindolin-2-yl)piperidine-2,6-dione] was run?
Answer: 0 to 0.1%

Question: How did the remaining activity at 5 µM turn out when `O=C1CCC(N2Cc3cc(C(=O)c4cc(-c5ccccc5)c[nH]4)ccc3C2=O)C(=O)N1` (stereo not shown) [Compound 27, 3-(1-oxo-5-(4-phenyl-1H-pyrrole-2-carbonyl)isoindolin-2-yl)piperidine-2,6-dione] was run?
Answer: 0 to 0.1%

Question: With `O=C1CCC(N2Cc3cc(C(=O)c4c[nH]c5ccccc45)ccc3C2=O)C(=O)N1` (stereo not shown) [Compound 4, 3-(5-(1H-indole-3-carbonyl)-1-oxoisoindolin-2-yl)piperidine-2,6-dione] as the compound, how does the remaining activity at 5 µM read?
Answer: 0.1 to 1%

Question: For `O=C1CCC(N2Cc3cc(C(=O)c4cc(-c5ccccc5)cs4)ccc3C2=O)C(=O)N1` (stereo not shown) [Compound 30, 3-(1-oxo-5-(4-phenylthiophene-2-carbonyl)isoindolin-2-yl)piperidine-2,6-dione], which remaining activity at 5 µM is on record?
Answer: 0 to 0.1%

Question: `O=C1CCC(N2Cc3nc(C(=O)c4ccccc4)ccc3C2=O)C(=O)N1` (stereo not shown) [Compound 5, 3-(2-benzoyl-5-oxo-5,7-dihydro-6H-pyrrolo[3,4-b]pyridin-6-yl)piperidine-2,6-dione] was tested. Which remaining activity at 5 µM did it give?
Answer: 1 to 10%

Question: How did the remaining activity at 5 µM turn out when `CNc1ccc2cc(C(=O)c3ccc4c(c3)CN(C3CCC(=O)NC3=O)C4=O)[nH]c2c1` (stereo not shown) [Compound 22, 3-(5-(6-(methylamino)-1H-indole-2-carbonyl)-1-oxoisoindolin-2-yl)piperidine-2,6-dione] was run?
Answer: 0 to 0.1%

Question: How did the remaining activity at 5 µM turn out when `O=C1CCC(N2Cc3cc(C(=O)c4cccc(-c5ccccc5)c4)ccc3C2=O)C(=O)N1` (stereo not shown) [Compound 26, 3-(5-([1,1′-biphenyl]-3-carbonyl)-1-oxoisoindolin-2-yl)piperidine-2,6-dione] was run?
Answer: 0 to 0.1%

Question: With `O=C1CCC(N2Cc3cc(C(=O)c4coc5ccccc45)ccc3C2=O)C(=O)N1` (stereo not shown) [Compound 37, 3-(5-(benzofuran-3-carbonyl)-1-oxoisoindolin-2-yl)piperidine-2,6-dione] as the compound, how does the remaining activity at 5 µM read?
Answer: 1 to 10%

Question: How did the remaining activity at 5 µM turn out when `O=C1CCC(N2Cc3cc(C(=O)c4ccccc4)ccc3C2=O)C(=O)N1` (stereo not shown) [Compound 1, 3-(5-benzoyl-1-oxoisoindolin-2-yl)piperidine-2,6-dione] was run?
Answer: 1 to 10%

Question: How did the remaining activity at 5 µM turn out when `O=C1CCC(N2Cc3cc(C(=O)c4ccccn4)ccc3C2=O)C(=O)N1` (stereo not shown) [Compound 12, 3-(1-oxo-5-picolinoylisoindolin-2-yl)piperidine-2,6-dione] was run?
Answer: 0 to 0.1%

Question: `O=C1CCC(N2Cc3cc(C(=O)c4cn(-c5ccccc5)c5ccc(-c6ccccc6)cc45)ccc3C2=O)C(=O)N1` (stereo not shown) [Compound 25, 3-(5-(1,5-diphenyl-1H-indole-3-carbonyl)-1-oxoisoindolin-2-yl)piperidine-2,6-dione] was tested. Which remaining activity at 5 µM did it give?
Answer: 10 to 35%

Question: Which remaining activity at 5 µM does the source give for `O=C1CCC(N2Cc3cc(C(=O)c4ccc(Nc5ccccc5)cc4)ccc3C2=O)C(=O)N1` (stereo not shown) [Compound 15, 3-(1-oxo-5-(4-(phenylamino)benzoyl)isoindolin-2-yl)piperidine-2,6-dione] here?
Answer: 0 to 0.1%

Question: How did the remaining activity at 5 µM turn out when `O=C1CCC(N2Cc3cc(C(=O)C4CCN(Cc5ccccc5)CC4)ccc3C2=O)C(=O)N1` (stereo not shown) [Compound 11, 3-(5-(1-benzylpiperidine-4-carbonyl)-1-oxoisoindolin-2-yl)piperidine-2,6-dione] was run?
Answer: 0 to 0.1%

Question: Which remaining activity at 5 µM does the source give for `O=C1CCC(N2Cc3cc(C(=O)c4cc5ccccc5[nH]4)ccc3C2=O)C(=O)N1` (stereo not shown) [Compound 3, 3-(5-(1H-indole-2-carbonyl)-1-oxoisoindolin-2-yl)piperidine-2,6-dione] here?
Answer: 0 to 0.1%

Question: `O=C1CCC(N2Cc3cc(C(=O)N4Cc5ccccc5C4)ccc3C2=O)C(=O)N1` (stereo not shown) [Compound 36] was tested. Which remaining activity at 5 µM did it give?
Answer: 0 to 0.1%

Question: Which remaining activity at 5 µM does the source give for `O=C1CCC(N2Cc3cc(C(=O)N4CCCC4)ccc3C2=O)C(=O)N1` (stereo not shown) [Compound 7, 3-(1-oxo-5-(pyrrolidine-1-carbonyl)isoindolin-2-yl)piperidine-2,6-dione] here?
Answer: 0 to 0.1%
